This note sets out measurements from ChEMBL document CHEMBL6078659, “Comprehensive Insights into the Development of Antitoxoplasmosis Drugs: Current Advances, Obstacles, and Future Perspectives” (J Med Chem, 2024).

The test system of experiment [1] is Toxoplasma gondii. The experiment can be described thus: Antiparasitic activity against Toxoplasma gondii. The format is functional, organism-based.
The subject of experiment [2] is Toxoplasma gondii. The experiment can be described thus: Antiparasitic activity against Toxoplasma gondii RH infected in human HFF cells. The format is functional, organism-based.
Experiment [3] has as its system Toxoplasma gondii. The experiment can be described thus: Antiparasitic activity against Toxoplasma gondii assessed as parasitic growth inhibition. It is filed as functional, organism-based.
For experiment [4], the system named is Toxoplasma gondii. The experiment can be described thus: Antiparasitic activity against Toxoplasma gondii RH. It is filed as functional, organism-based.
Experiment [5] addresses T1, Bifunctional dihydrofolate reductase-thymidylate synthase (Toxoplasma gondii, UniProt Q07422).
T1 sequence (Q07422 whole entry): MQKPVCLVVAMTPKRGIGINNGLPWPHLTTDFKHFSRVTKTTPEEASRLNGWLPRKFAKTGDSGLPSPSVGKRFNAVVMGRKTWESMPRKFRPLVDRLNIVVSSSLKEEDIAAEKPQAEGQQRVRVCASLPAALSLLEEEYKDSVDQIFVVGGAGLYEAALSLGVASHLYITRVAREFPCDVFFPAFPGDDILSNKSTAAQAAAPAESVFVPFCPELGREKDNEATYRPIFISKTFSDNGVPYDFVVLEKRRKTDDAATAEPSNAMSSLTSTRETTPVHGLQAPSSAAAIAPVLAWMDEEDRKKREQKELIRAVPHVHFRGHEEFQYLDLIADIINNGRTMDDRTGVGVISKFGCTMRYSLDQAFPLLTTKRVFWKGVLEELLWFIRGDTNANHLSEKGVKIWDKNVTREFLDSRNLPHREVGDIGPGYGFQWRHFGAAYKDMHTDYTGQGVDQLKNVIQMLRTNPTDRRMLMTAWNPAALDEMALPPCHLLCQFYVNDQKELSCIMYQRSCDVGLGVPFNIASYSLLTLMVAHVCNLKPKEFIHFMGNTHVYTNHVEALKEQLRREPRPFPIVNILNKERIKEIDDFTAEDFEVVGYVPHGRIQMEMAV
The experiment can be described thus: Inhibition of Toxoplasma gondii Dihydrofolate reductase.

The nature of experiment [6]: Inhibition of Toxoplasma gondii Farnesyl pyrophosphate synthase.
In experiment [7] the test system is Toxoplasma gondii. The experiment can be described thus: Antiparasitic activity against Toxoplasma gondii RH tachyzoites infected in human HFF cells assessed as parasitic growth inhibition. The format is functional, organism-based.

As a reminder, the IC50 is the concentration at which inhibition is half-maximal. For `COc1cc(/C=C/C(=O)C(=Cc2ccc(F)c(F)c2)C(=O)/C=C/c2ccc(O)c(OC)c2)ccc1O`, the IC50 in the experiment with Toxoplasma gondii [1] is 800 nM.
Consider `Oc1ccc(/C=C/c2cc(O)cc(O)c2)cc1` [RESVERATROL], for which it took 54600 nM to reach half-maximal inhibition in the experiment on Toxoplasma gondii [1] (IC50).
For `O=C1C2=C(C(=O)c3ccccc31)[C@H]1Oc3ccc(Cl)cc3[C@H]1CO2`, the IC50 with Toxoplasma gondii [2] was under 1000 nM; in the experiment on Toxoplasma gondii [3] it was under 10000 nM.
Regarding `COC(=O)Cn1c(C(=O)NS(=O)(=O)C2=Cc3ccccc3C2)cc2cc(OC)ccc21`, inhibition in the experiment with Toxoplasma gondii [2] was half-maximal at 130 nM (IC50).
Regarding `COc1cc(OC)c2ccc(-c3ccc(O)cc3)[o+]c2c1`, the IC50 in the experiment on Toxoplasma gondii [4] came out at 0.53 µg/mL.
With `CC(C)=CCC1=C(O)C(=O)c2ccccc2C1=O` [LAPACHOL], the IC50 in the experiment with Toxoplasma gondii [2] is 0.4 µg/mL; in the experiment with Toxoplasma gondii [3] it was 4880 nM.
The compound `CC1(C)N=C(N)N=C(N)N1OCCCOc1ccc(OC(F)(F)F)cc1Cl` yielded an IC50 in experiment [5] of 20 nM.
Regarding `N[C@@H]1[C@H]2CN(c3nc4c(cc3F)c(=O)c(C(=O)O)cn4-c3ccc(F)cc3F)C[C@@H]12` [TROVAFLOXACIN], the IC50 in the experiment on Toxoplasma gondii [3] came to 0.4 µg/mL.
For `CC[C@]1(C)NC(=O)[C@H](CCCCCC(=O)[C@@H](C)OC(C)=O)NC(=O)[C@H]2C[C@H](C)CN2C(=O)[C@H](Cc2ccccc2)NC1=O`, the IC50 in experiment [6] was 10.2 nM.
Turning to `Cc1c(F)c(N2CCNC(C)C2)cc2c1c(=O)c(C(=O)O)cn2C1CC1` (centres undefined) [GREPAFLOXACIN], the IC50 in the experiment on Toxoplasma gondii [3] is 2.4 µg/mL.
For `COc1cc(C2c3cc(c(O)cc3O)C(c3ccc(O)c(OC)c3)c3cc(c(O)cc3O)C(c3ccc(O)c(OC)c3)c3cc(c(O)cc3O)C(c3ccc(O)c(OC)c3)c3cc2c(O)cc3O)ccc1O` (centres undefined), the IC50 in the experiment with Toxoplasma gondii [1] was over 2000 µg/mL.
As for `COC(=O)C1C(C)=CCCC1(C)C` (centres undefined), the IC50 in the experiment on Toxoplasma gondii [2] was determined as 242 µg/mL.
`C=C(C)[C@@H]1CC[C@]2(CO)CC[C@]3(C)[C@H](CC[C@@H]4[C@@]5(C)CCC(=O)C(C)(C)[C@@H]5CC[C@]43C)[C@@H]12` [BETULONE] had an IC50 with Toxoplasma gondii [4] of 2700 nM.
Same read-out and setting: with `CC1(C)CC[C@]2(C(=O)O)CC[C@]3(C)C(=CC[C@@H]4[C@@]5(C)CC[C@H](O)[C@@](C)(CO)[C@@H]5CC[C@]43C)[C@@H]2C1` [HEDERAGENIN] the figure was 548000 nM; with `Oc1ccc(-c2ccc3c(O)cc(O)cc3[o+]2)cc1`, 1.08 µg/mL.
`Cc1ccc(CSc2ncnc3c2ncn3[C@@H]2C[C@H](CO)[C@@H](O)[C@H]2O)cc1`: the midpoint of inhibition in experiment [5], the IC50, lay at 11.9 nM.
On to `C=CCC1[C@H](O[Si](C)(C)C(C)(C)C)C[C@@H](C(=O)OC)N1C(=O)OC(C)(C)C` (some centres undefined), for which, in the experiment on Toxoplasma gondii [7], the IC50 was determined as 3900 nM.
Compound `O=C(c1ccccc1O)c1[nH]c(Cl)c(Cl)c1-n1c(C(=O)c2ccc(Cl)cc2O)cc(Cl)c1Cl` showed an IC50 in experiment [5] of 160 nM.
Regarding `COc1c(N2C[C@@H]3CCCN[C@@H]3C2)c(F)cc2c(=O)c(C(=O)O)cn(C3CC3)c12` [MOXIFLOXACIN], in the experiment on Toxoplasma gondii [3], the concentration for half-maximal inhibition (IC50) was 5.1 µg/mL.
`O=C(CCCCSc1nc(-c2ccc(-c3ccccc3)cc2)cc(=O)[nH]1)NO` yielded an IC50 in experiment [6] of 34 nM.
As to `O=C(c1ccccc1O)c1[nH]c(Cl)c(Cl)c1-n1c(C(=O)c2ccccc2O)cc(Cl)c1Cl`, the IC50 in experiment [5] was 310 nM.
Take `COc1ccc2c3ccnc(C)c3n(C)c2c1`: the IC50 in the experiment with Toxoplasma gondii [7] worked out at 1800 nM.
In turn, `CC(C)=CCC/C(C)=C/CO` [GERANIOL] showed an IC50 in the experiment on Toxoplasma gondii [1] of 4 µg/mL.
Regarding `CC1=C(c2nccs2)O[C@@H]2O[C@@]3(C)CC[C@H]4[C@H](C)CC[C@@H]1[C@@]24OO3`, the midpoint of inhibition in the experiment on Toxoplasma gondii [2], the IC50, lay at 1000 nM.
In experiment [6], `COc1cccc(CC(=O)Nc2ccc(C(=O)NO)cc2)c1` had an IC50 of 560 nM.
In the case of `C/C(=N\Nc1nc(-c2ccc([N+](=O)[O-])cc2)cs1)c1ccc(Nc2nc(N)nc(N)n2)cc1`, in the experiment on Toxoplasma gondii [2], the IC50 was 14.9 µg/mL.
For `COc1cc(-c2cc(=O)c3c(O)cc(O)cc3o2)cc(OC)c1O` [TRICIN], half-maximal inhibition in the experiment on Toxoplasma gondii [4] (IC50) was put at 12.9 µg/mL.
Take `CC(C)(C)[Si](C)(C)O[C@@H]1C[C@@H](/C=C\I)N2CCCC[C@]12C`: the IC50 in the experiment with Toxoplasma gondii [7] was 3900 nM.
In the case of `O=C1C2=C(C(=O)c3ccccc31)[C@H]1Oc3ccc(Br)cc3[C@H]1CO2`, the IC50 in the experiment with Toxoplasma gondii [2] and in the experiment on Toxoplasma gondii [3] was 2600 nM in each case.
As for `COc1cc(C=O)ccc1O` [VANILLIN], in the experiment on Toxoplasma gondii [1], the IC50 was determined as 645 µg/mL.
For the compound `O=C1C=C2C=C[C@@H]3C[C@@]2(O1)[C@H]1CCCCN31` [SECURININE], the IC50 with Toxoplasma gondii [7] came to 9800 nM.
In the experiment with Toxoplasma gondii [4], `C/C=C/c1cc(OC)c2c(c1)[C@@H](C)[C@H](c1ccc3c(c1)OCO3)O2` [LICARINE B] yielded an IC50 of 14 µg/mL.
In the case of `C[C@@H]1CC[C@H]2[C@@H](C)C(=O)O[C@@H]3O[C@@]4(C)CC[C@@H]1[C@]32OO4` [ARTEMISININ], in the experiment on Toxoplasma gondii [2], the IC50 turned out to be 1700 nM.
In experiment [5], `Cc1cc(C)c(O)c(C(=O)c2cc(Br)c(Br)[nH]2)c1` registered an IC50 of 90 nM.
As to `C/C=C/C1=C(O)C(=O)c2ccccc2C1=O`, the IC50 with Toxoplasma gondii [2] and with Toxoplasma gondii [3] was 3010 nM throughout.
